Laboratory results published in patent publication US6683184B2, “Piperazine derivatives and process for the preparation thereof” (Samjin Pharmaceutical Co., Ltd., priority 1999, dated 2004).
Converted amounts (≈) assume the structure as drawn.

Key:
Assay type in all cases: cell-based
[1] = system: P388 (mouse lymphoid neoplasma cell); test: In vitro antitumor effects against animal leukemia cells, dye exclusion assay; settings: 48 hours, trypan blue dye exclusion, read-out: P388 (IC50, concentration showing 50% cell growth inhibition compared with the control)
Protocol: In vitro antitumor effects against animal leukemia cells.
Tumor cell line: P388 (mouse lymphoid neoplasma cell)
B. Method: Dye Exclusion Assay.
1) Concentrations of P388 cells being cultured in RPMI 1640 media containing 10% FBS were regulated to 1×10^6 cells/ml.
2) Sample drugs of respective concentrations diluted in the ratio of log doses were added into each cell culture and cultured at 37° C., for 48 hours, in […] incubator, and then viable cell numbers were measured by dye exclusion test using trypan blue.

XF 498 (human CNS) = test: In vitro antitumor effect against human tumor cell lines, SRB assay, XF 498; settings: 48 hours; for IC50: Homo sapiens, XF498, XF-498 cells, read-out: ED50 XF-498; for ED50 XF-498: XF-498 cells
Protocol: (§1) In vitro antitumor effect against human tumor cell lines.
(§2) a. Human solid tumor cell lines, A549(non-small lung cell), SKMEL-2(melanoma), HCT-15(colon), SKOV-3(ovarian), XF-498(CNS) were cultured at 37° C. in 5% CO2 incubators using RPMI 1640 media containing 10% FBS, while they were transfer-cultured successively once or twice per week. Cell cultures were dissolved in a solution of 0.25% trypsin and 3 mM CDTA PBS(−) and then cells were separated from media which the cells were sticked on.
(§3) b. 5×10^3˜2×10^4 cells were added into each well of 96-well plate and cultured in 5% CO2 incubator, at 37° C., for 24 hours.
(§4) c. Each sample drug was dissolved in a little DMSO and diluted with the used medium to a prescribed concentration for experiments, wherein the final concentration of DMSO was controlled below 0.5%.
(§5) d. Medium of each well cultured for 24 hours as above b. was removed by aspiration. Each 200 μl of drug samples prepared in c. was added into each well and the wells were cultured for 48 hours. Tz(time zero) plates were collected at the point of time drugs were added.
(§6) e. According to the SRB assay method, cell fixing with TCA, staining with 0.4% SRB solution, washing with 1% acetic acid and elution of dye with 10 mM Tris solution were carried out on Tz plates and culture-ended plates, whereby OD values were measured at 520 nm.
(§7) a. Time zero(Tz) value was determined with measuring the SRB protein amounts of the Tz plates collected at the point of time drugs were added.
(§8) b. Control value(C) was determined with the OD values of wells untreated with a drug.
(§9) c. Drug-treated test value(T) was determined with the OD values of drug-treated wells.
(§10) d. Effects of drugs were estimated with growth stimulation, net growth inhibition, net killing etc., being calculated from Tz, C and T.
(§11) e. If T≧Tz, cellular response function was calculated by 100×(T−Tz)/(C−Tz), and if T<Tz, by 100×(T−Tz)/Tz.

[2] = system: A549 (human non-small lung cell); test: In vitro antitumor effect against human tumor cell lines, SRB assay, A549; settings: A549 cells, 48 hours; for IC50: Homo sapiens, read-out: ED50 A 549
Protocol: as §1, §2, §3, §4, §5, §6, §7, §8, §9, §10, §11

SKOV-3 (human ovarian) = test: In vitro antitumor effect against human tumor cell lines, SRB assay, SKOV-3; settings: SK-OV-3 cells, 48 hours; for IC50: Homo sapiens, read-out: ED50 SK-OV-3
Protocol: as §1, §2, §3, §4, §5, §6, §7, §8, §9, §10, §11

SKMEL-2 (human melanoma) = test: In vitro antitumor effect against human tumor cell lines, SRB assay, SKMEL-2; settings: SK-MEL-2 cells, 48 hours; for IC50: Homo sapiens, read-out: ED50 SK-MEL-2
Protocol: as §1, §2, §3, §4, §5, §6, §7, §8, §9, §10, §11

HCT-15 (human colon) = test: In vitro antitumor effect against human tumor cell lines, SRB assay, HCT-15; settings: HCT 15 cells, 48 hours; for IC50: Homo sapiens, read-out: ED50 HCT 15
Protocol: as §1, §2, §3, §4, §5, §6, §7, §8, §9, §10, §11

Molecule	IC50 [1]	IC50 (XF 498 (human CNS))	IC50 [2]	IC50 (SKOV-3 (human ovarian))	IC50 (SKMEL-2 (human melanoma))	IC50 (HCT-15 (human colon))	ED50 XF-498 (XF 498 (human CNS))	ED50 A 549 [2]	ED50 SK-OV-3 (SKOV-3 (human ovarian))	ED50 SK-MEL-2 (SKMEL-2 (human melanoma))	ED50 HCT 15 (HCT-15 (human colon))
COc1nc(C)c(C)nc1N(C)C(=O)N1CCN(c2cc(C)cc(C)c2)CC1 [Example 20, 1-[(5,6-Dimethyl-2-methoxypyrazin-3-yl)N-methylaminocarbonyl]-4-(3,5-dimethylphenyl)piperazine]	1.2 µg/mL (≈ 3.13 µM)	0.97 µg/mL (≈ 2.53 µM)	0.323 µg/mL (≈ 0.842 µM)	0.904 µg/mL (≈ 2.36 µM)	0.211 µg/mL (≈ 0.55 µM)	0.295 µg/mL (≈ 0.769 µM)	–	–	–	–	–
COc1ccccc1N1CCN(C(=O)Nc2nc3ccccc3nc2OC)CC1 [Example 37, 1-[(2-Methoxyquinoxalin-3-yl)aminocarbonyl]-4-(2-methoxyphenyl)-piperazine]	0.3 µg/mL (≈ 0.762 µM)	0.003 µg/mL (≈ 0.00762 µM)	0.01 µg/mL (≈ 0.0254 µM)	0.02 µg/mL (≈ 0.0508 µM)	0.02 µg/mL (≈ 0.0508 µM)	0.009 µg/mL (≈ 0.0229 µM)	–	–	–	–	–
COc1nc2ccccc2nc1NC(=S)N1CCN(c2cc(C)cc(C)c2)CC1 [Example 66, 1-[(2-Methoxyquinoxalin-3-yl)aminothiocarbonyl]-4-(3,5-di-methylphenyl)piperazine]	0.2 µg/mL (≈ 0.491 µM)	0.008 µg/mL (≈ 0.0196 µM)	0.005 µg/mL (≈ 0.0123 µM)	0.008 µg/mL (≈ 0.0196 µM)	0.002 µg/mL (≈ 0.00491 µM)	0.003 µg/mL (≈ 0.00736 µM)	–	–	–	–	–
CCOc1nc2ccccc2nc1NC(=O)N1CCN(c2cc(C)cc(C)c2)CC1 [Example 74, 1-[(2-Ethoxyquinoxalin-3-yl)aminocarbonyl]-4-(3,5-dimethylphenyl)piperazine]	0.68 µg/mL (≈ 1.68 µM)	0.024 µg/mL (≈ 0.0592 µM)	0.002 µg/mL (≈ 0.00493 µM)	0.038 µg/mL (≈ 0.0937 µM)	0.003 µg/mL (≈ 0.0074 µM)	0.028 µg/mL (≈ 0.0691 µM)	–	–	–	–	–
COc1nc(C)c(C)nc1N(C)C(=O)N1CCN(c2cc(Cl)cc(Cl)c2)CC1 [Example 21, 1-[(5,6-Dimethyl-2-methoxypyrazin-3-yl)N-methylaminocarbonyl]-4-(3,5-dichlorophenyl)piperazine]	0.8 µg/mL (≈ 1.89 µM)	0.097 µg/mL (≈ 0.229 µM)	0.038 µg/mL (≈ 0.0896 µM)	0.093 µg/mL (≈ 0.219 µM)	0.024 µg/mL (≈ 0.0566 µM)	0.008 µg/mL (≈ 0.0189 µM)	–	–	–	–	–
COc1nc(C)c(CO)cc1N=C(NO)N1CCN(c2cc(F)cc(F)c2)CC1 [Example 127, N-Hydroxy-N′-(5-hydroxymethyl-2-methoxy-6-methylpyridin-3-yl)-[4-(3,5-difluorophenyl)piperazin-1-yl]carboxyimidamide]	–	–	–	–	–	–	6 ng/mL (≈ 0.0147 µM)	13 ng/mL (≈ 0.0319 µM)	0.011 µg/mL (≈ 0.027 µM)	5 ng/mL (≈ 0.0123 µM)	2 ng/mL (≈ 0.00491 µM)
COc1nc2ccccc2nc1N(C)C(=O)N1CCN(c2cc(C)cc(C)c2)CC1 [Example 55, 1-[(2-Methoxyquinoxalin-3-yl)N-methylaminocarbonyl]-4-(3,5-dimethylphenyl)piperazine]	–	0.41 µg/mL (≈ 1.01 µM)	0.34 µg/mL (≈ 0.838 µM)	0.49 µg/mL (≈ 1.21 µM)	0.22 µg/mL (≈ 0.543 µM)	0.33 µg/mL (≈ 0.814 µM)	–	–	–	–	–
COc1cc(OC)cc(N2CCN(C(=Nc3cc4ccccc4nc3OC)NO)CC2)c1 [Example 172, N-Hydroxy-N′-(2-methoxyquinolin-3-yl)-[4-(3,5-dimethoxyphenyl)-piperazin-1-yl]carboxyimidamide]	–	–	–	–	–	–	30 ng/mL (≈ 0.0686 µM)	70 ng/mL (≈ 0.16 µM)	0.08 µg/mL (≈ 0.183 µM)	20 ng/mL (≈ 0.0457 µM)	20 ng/mL (≈ 0.0457 µM)
COc1nc2ccccc2nc1NC(=O)N1CCN(c2cccc(Br)c2)CC1 [Example 45, 1-[(2-Methoxyquinoxalin-3-yl)aminocarbonyl]-4-(3-bromop-henyl)piperazine]	–	–	–	–	–	–	0.2 ng/mL (≈ 0.000452 µM)	0.1 ng/mL (≈ 0.000226 µM)	0.0002 µg/mL (≈ 0.000452 µM)	<0.1 ng/mL	0.1 ng/mL (≈ 0.000226 µM)
COc1nc2ccccc2cc1N=C(NO)N1CCN(c2cc(C)cc(C)c2)CC1 [Example 173, N-Hydroxy-N′-(2-methoxyquinolin-3-yl)-[4-(3,5-dimethylphenyl)-piperazin-1-yl]carboxyimidamide]	–	–	–	–	–	–	210 ng/mL (≈ 0.518 µM)	400 ng/mL (≈ 0.986 µM)	0.86 µg/mL (≈ 2.12 µM)	150 ng/mL (≈ 0.37 µM)	180 ng/mL (≈ 0.444 µM)
N.N.[Cl][Pt][Cl] [Cisplatin, reference compound]	–	–	–	–	–	–	770 ng/mL	910 ng/mL	1.32 µg/mL	870 ng/mL	3170 ng/mL
COc1nc2ccccc2nc1NC(=S)N1CCN(c2cc(F)cc(F)c2)CC1 [Example 68, 1-[(2-Methoxyquinoxalin-3-yl)aminothiocarbonyl]-4-(3,5-difluorophenyl)piperazine]	–	0.47 µg/mL (≈ 1.13 µM)	0.38 µg/mL (≈ 0.915 µM)	0.86 µg/mL (≈ 2.07 µM)	0.34 µg/mL (≈ 0.818 µM)	0.31 µg/mL (≈ 0.746 µM)	–	–	–	–	–
CCc1nc(OC)c(N=C(NO)N2CCN(c3cc(OC)cc(OC)c3)CC2)cc1C(=O)OC [Example 159, N-Hydroxy-N′-(6-ethyl-5-methoxycarbonyl-2-methoxypyridin-3-yl)-[4-(3,5-dimethoxyphenyl)piperazin-1-yl]carboxyimidamide]	–	–	–	–	–	–	6 ng/mL (≈ 0.0127 µM)	29 ng/mL (≈ 0.0612 µM)	0.010 µg/mL (≈ 0.0211 µM)	2 ng/mL (≈ 0.00422 µM)	0.6 ng/mL (≈ 0.00127 µM)
COc1cc(OC)cc(N2CCN(C(=O)N(C)c3nc4ccccc4nc3OC)CC2)c1 [Example 53, 1-[(2-Methoxyquinoxalin-3-yl) N-methylaminocarbonyl]-4-(3,5-dimethoxyphenyl)piperazine]	–	0.27 µg/mL (≈ 0.617 µM)	0.17 µg/mL (≈ 0.389 µM)	0.21 µg/mL (≈ 0.48 µM)	0.93 µg/mL (≈ 2.13 µM)	0.05 µg/mL (≈ 0.114 µM)	–	–	–	–	–
COc1cc(C)c(C)cc1N=C(NO)N1CCN(c2cc(F)cc(F)c2)CC1 [Example 182, N-Hydroxy-N′-(4,5-dimethyl-2-methoxyphenyl-1-yl)-[4-(3,5-difluorophenyl)piperazin-1-yl]carboxyimidamide]	–	–	–	–	–	–	103 ng/mL (≈ 0.264 µM)	292 ng/mL (≈ 0.748 µM)	0.081 µg/mL (≈ 0.207 µM)	33 ng/mL (≈ 0.0845 µM)	6 ng/mL (≈ 0.0154 µM)
COc1cc2ccccc2cc1N(C)C(=O)N1CCN(c2cc(C)cc(C)c2)CC1 [Example 90, 1-[(2-Methoxynaphth-3-yl)-N-methylaminocarbonyl]-4-(3,5-dimethylphenyl)piperazine]	–	0.68 µg/mL (≈ 1.69 µM)	0.38 µg/mL (≈ 0.942 µM)	0.35 µg/mL (≈ 0.867 µM)	0.9 µg/mL (≈ 2.23 µM)	0.2 µg/mL (≈ 0.496 µM)	–	–	–	–	–
1-[(5,6-Dichloroethyl-2-methoxypyrazin-3-yl)aminocarbonyl]-4-(3,5-dimethoxyphenyl)piperazine [Example 35]	–	–	–	–	–	–	0.1 ng/mL	0.1 ng/mL	0.0007 µg/mL	<0.1 ng/mL	0.1 ng/mL
COc1nc(C)c(C(C)O)cc1N=C(NO)N1CCN(c2cc(C)cc(C)c2)CC1 (stereo not shown) [Example 138, N-Hydroxy-N′-[5-(1-hydroxyethyl)-2-methoxy-6-methylpyridin-3-yl]-[4-(3,5-dimethylphenyl)piperazin-1-yl]carboxyimidamide]	–	–	–	–	–	–	18 ng/mL (≈ 0.0435 µM)	74 ng/mL (≈ 0.179 µM)	0.030 µg/mL (≈ 0.0725 µM)	16 ng/mL (≈ 0.0387 µM)	6 ng/mL (≈ 0.0145 µM)
COC(=O)c1cc(N=C(NO)N2CCN(c3cc(OC)cc(OC)c3)CC2)c(OC)nc1C [Example 118, N-Hydroxy-N′-(5-methoxycarbonyl-2-methoxy-6-methylpyridin-3-yl)-[4-(3,5-dimethoxyphenyl)piperazin-1-yl]carboxyimidamide]	–	–	–	–	–	–	17 ng/mL (≈ 0.037 µM)	57 ng/mL (≈ 0.124 µM)	0.032 µg/mL (≈ 0.0696 µM)	19 ng/mL (≈ 0.0413 µM)	0.2 ng/mL (≈ 0.000435 µM)
COc1nc(C)c(C)nc1NC(=O)N1CCN(c2cc(Cl)cc(Cl)c2)CC1 [Example 11, 1-[(5,6-Dimethyl-2-methoxypyrazin-3-yl)aminocarbonyl]-4-(3,5-dichlorophenyl)piperazine]	0.02 µg/mL (≈ 0.0487 µM)	–	–	–	–	–	–	–	–	–	–
COc1cc2ccccc2cc1NC(=O)N1CCN(c2cc(Cl)cc(Cl)c2)CC1 [Example 89, 1-[(2-Methoxynaphth-3-yl)aminocarbonyl]-4-(3,5-dichlorophenyl)piperazine]	–	0.04 µg/mL (≈ 0.093 µM)	0.04 µg/mL (≈ 0.093 µM)	0.2 µg/mL (≈ 0.465 µM)	0.03 µg/mL (≈ 0.0697 µM)	0.05 µg/mL (≈ 0.116 µM)	–	–	–	–	–
